Measured values as given in PubChem BioAssay AID2644 (Southern Research Specialized Biocontainment Screening …, 2010).
Activity calls are given as the source filed them.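 The calls were made as follows: active = compounds cutting the HIV-1 infection reporter signal by at least 50%; inactive = the rest.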

Test system: MAGI-CCR5 cells, HIV-1 Ba-L, beta-gal luminescence, 48 h
Assay: anti-HIV-1 activity in MAGI-CCR5 cells – cell-based, HIV-1 Ba-L, beta-gal reporter, 5%/10% serum, SAR follow-up (AID 2644)
[1] = measured here: antiviral IC50 in 10% serum

Structure (SMILES)	IC50	IC50 [1]
CC(C)(C)c1cc(-c2csc(Nc3ccccc3)[n+]2Cc2ccc(C(=O)O)cc2)cc(C(C)(C)C)c1O	7.17 µM	12.3 µM
CSc1nnc(-c2ccccc2N=Cc2c(C)[nH]n(-c3ccc4ccccc4c3)c2=O)c(=O)[nH]1	53.1 µM	> 100 µM
COc1cc(/C=N/NS(=O)(=O)c2ccc3ccccc3c2)ccc1OCc1ccc(C(=O)O)cc1	> 100 µM (inactive)	> 100 µM
O=C(O)CCCN1C(=O)/C(=C/c2ccc(-c3nc4ccccc4s3)o2)SC1=S	80.8 µM	95.4 µM
CCC(Sc1nc2ccsc2c(=O)n1Cc1ccc(C(=O)O)cc1)C(=O)Nc1ccc(C)c(Cl)c1 (configuration not stated)	14.6 µM	37.8 µM
O=C(N/N=C/c1c(O)n(C2CCCCC2)c(=S)[nH]c1=O)c1ccccc1O	46.4 µM	45 µM
CCOC(=O)C1=C(C)N=c2sc(=Cc3ccc(OCC(=O)O)cc3)c(=O)n2C1c1ccc(OC(C)C)cc1 (configuration not stated)	20.9 µM	26 µM
O=C(O)c1ccccc1N=Nc1c(O)[nH]c2ccc([N+](=O)[O-])cc12	> 100 µM (inactive)	> 100 µM
O=C1NC(=S)N(c2ccc(F)cc2)C(=O)/C1=C\c1ccoc1	> 100 µM (inactive)	> 100 µM
COC(=O)c1sc(-c2ccc(C(C)(C)C)cc2)cc1NC(=O)c1ccccc1C(=O)O	49.9 µM	54.9 µM
Cc1c(Cl)cccc1NS(=O)(=O)c1ccc2c(c1)C1C=CCC1C(c1ccc(C(=O)O)cc1)N2 (configuration not stated)	16.7 µM	40.6 µM
N#C/C(=C\c1ccc(OCc2ccc(Cl)cc2)cc1)C(=O)Nc1cccc(C(=O)O)c1	> 100 µM (inactive)	> 100 µM
CC(C)NC(=O)c1sc(=S)n2c1[nH]c(=O)c1ccc(C(=O)NCCc3ccc(Cl)cc3)cc12	35.1 µM	63.4 µM
CCOc1cc(/C=C2\SC(=O)N(CC(=O)Nc3ccccc3F)C2=O)cc([N+](=O)[O-])c1O	21 µM	26.3 µM
CCC(C)(C)C1CCc2c(sc(NC(=O)c3ccccc3C(=O)O)c2C#N)C1 (configuration not stated)	> 100 µM (inactive)	> 100 µM
Cc1c2c(=O)n(-c3nc4ccccc4s3)nc-2cc(O)n1Cc1ccccc1	12.5 µM	11.1 µM
CCOC(=O)c1sc(N2C(=O)C(O)=C(C(=O)c3ccc(C)o3)C2c2cccc([N+](=O)[O-])c2)nc1C (configuration not stated)	20.6 µM	18.5 µM
O=[N+]([O-])c1cc([N+](=O)[O-])c2oc(-c3ccccc3)c(Br)c2c1O	4.46 µM	9.38 µM
Oc1c(Cl)cc(Cl)c(Cl)c1Cc1c(O)c(Cl)cc(Cl)c1Cl	49.3 µM	> 100 µM
N#C/C(=C\c1ccc(O)c([N+](=O)[O-])c1)c1nc2ccccc2s1	7.96 µM	15.1 µM
COc1cc(/C=C2\SC(=O)N(c3ccccc3Cl)C2=O)cc([N+](=O)[O-])c1O	13.9 µM	23.8 µM
